In data set [1] the test system is BJAB (malignant human B-cell-line). Kind of data set: BJAB cell proliferation. As to conditions: BJAB (malignant human B-cell-line) cell proliferation, EC50; read-out: BJAB. It is filed as cell-based.
In data set [2] the test system is HCT-116. Put plainly: Cell proliferation, Cell-Titre Glo, 72 hours: HCT-116. It is filed as cell-based. As to conditions: Homo sapiens, mean ± std. dev. The method, then:
(§1) NHLF, BJAB, SU-DHL-2, and HCT-116 cells were treated with Compound A197 for 4 hours prior to lysate harvest. Total cellular glutathione (GSH) levels were determined using a luminescent endpoint (GSH-Glo, Promega). Cell proliferation was determined using Cell-Titre Glo following 72 hours of compound treatment. All data shown is mean±SD of three biological replicates.

In data set [3] the test system is DNA Damage. Kind of data set: High content imaging screen: DNA damage (Histone H2A.x phosphorylation). The class given is cell-based. As to conditions: Histtone H2A.x phosphorylation as marker. As for the experimental part: (§2) Mechanism of Action Screens A series of broad high content imaging, transcriptomic, metabolomic, and CRISPR KO screens were performed to link Compound A197 activity to a probable method of action. The outcome of these screens included two notable observations.

The subject of data set [4] is SU-DHL-2. Put plainly: Apoptosis, 72 hr: SU-DHL-2. It is filed as cell-based, human.
For data set [5], the system named is HCT-116. Kind of data set: Apoptosis, 72 hr: HCT-116. It is filed as cell-based, human.
The test system of data set [6] is NHLF. Kind of data set: Total cellular GSH levels (GSH-Glo): NHLF. As to conditions: 4 hrs. It is filed as cell-based, human. As for the experimental part:
as §1

The test system of data set [7] is HCT-116. Kind of data set: Total cellular GSH levels (GSH-Glo): HCT-116. The class given is cell-based, human. The note with it: 4 hrs, mean ± std. dev. As for the experimental part: as §1
Data set [8] concerns SU-DHL-2. Kind of data set: Cell proliferation, Cell-Titre Glo, 72 hours: SU-DHL-2. The class given is cell-based. As to conditions: Homo sapiens, mean ± std. dev. The method, then:
as §1

Data set [9] has as its system BJAB. Put plainly: Apoptosis, 72 hr: BJAB. It is filed as cell-based, human.
Data set [10] concerns Kinase. Kind of data set: In vitro assays: kinase. It is filed as biochemical. The note with it: 63 kinase family members including Raf, MEK, ERK, AKT, CDK1-4.
For data set [11], the system named is BJAB. Kind of data set: Cell proliferation, Cell-Titre Glo, 72 hours: BJAB. It is filed as cell-based. As to conditions: Homo sapiens, mean ± std. dev. The method, then: as §1
Data set [12] concerns NHLF. Kind of data set: Apoptosis, 72 hr: NHLF. The class given is cell-based, human.
Data set [13] has as its system Metabolites. Kind of data set: Metabolomic screen. The note with it: GSH, ATP/AMP ratio, isocitrate and aconitate. It is filed as cell-based. The method, then:
as §2

The subject of data set [14] is Oxidative Stress. Kind of data set: High content imaging screen: oxidative stress (ROS). It is filed as cell-based. As for the experimental part:
as §2

The test system of data set [15] is SU-DHL-2. Kind of data set: Total cellular GSH levels (GSH-Glo): SU-DHL-2. It is filed as cell-based, human. As to conditions: 4 hrs, mean ± std. dev. As for the experimental part: as §1
In data set [16] the test system is Cytoskeletal. Put plainly: High content imaging screen: cytoskeletal. As to conditions: actin or microtubule localization or structure. The class given is cell-based. As for the experimental part: as §2
A short description of data set [17]: Pharmacokinetics in CD-1 mice, single oral dose compared to single intravenous dose. As to conditions: for bioavailability: CD-1, mouse, po; for Cmax: blood plasma. It is filed as in vivo. The method, then: Pharmacokinetic Properties of Compound A197 Compound A197 levels in blood plasma of CD-1 mice given a single, oral dose of the agent and compared to a single intravenous dose, were measured to assess basic pharmacokinetic parameters. A197 was dissolved in 1% NMP, 0.3% Tween-80 in 0.5% methylcellulose at a dose volume of 10 ml/kg. Following compound dosing, blood was collected by tail vein bleed at 30 minutes, 1, 2, 4, 8, 12, 24 and 48 hrs following dosing.

Data set [18] relates to BJAB. Put plainly: Total cellular GSH levels (GSH-Glo): BJAB. As to conditions: 4 hrs, mean ± std. dev. The class given is cell-based, human. As for the experimental part:
as §1

Data set [19] concerns NHLF, BJAB, SU-DHL-2, and HCT-116 cells. Kind of data set: Total cellular GSH levels (GSH-Glo), all lines. The note with it: tumor lines HCT-116, BJAB. It is filed as cell-based, human. The method, then:
Total cellular GSH levels are reduced in tumor lines treated with Compound A197 The therapeutic compounds will cause a dose dependent reduction in total cellular glutathione in HCT-116, BJAB, SU-DHL-2, but not in NHLF cells. The maximum reduction of cellular GSH is in the range of 43-69%. The reduction In GSH levels appears independent of apoptosis.
as §1

[20] abbreviates: Homo sapiens, read-out: GSH IC50 (Abs).
The mark [21] stands for this setting: mouse, plasma, 0.5 mg/kg, Intravenous, 0.5 mpk.

Entries after “also recorded” stand apart in the source; their conditions may differ. Read-outs that look alike come from different tables or passages of the source. Bounds are passed on as bounds.

On to `COC(=O)c1c(-c2cccc(F)c2)c(C)nn1-c1nc(C2=CCC(C(F)(F)F)CC2)c(SC(C)C)s1` (single isomer, unassigned) [Compound B19, methyl 4-(3-fluorophenyl)-1-(5-(isopropylthio)-4-(4-(trifluoromethyl)cyclohex-1-en-1-yl)thiazol-2-yl)-3-methyl-1H-pyrazole-5-carboxylate], for which, in [1], the EC50 is less than 1000 nM.

Regarding `Cc1nn(-c2nc(-c3ccc(C(F)(F)F)cc3)c(SC(C)C)s2)c(C(=O)O)c1-c1cccc(F)c1` [Compound A197, 4-(3-fluorophenyl)-1-(5-(isopropylthio)-4-(4-(trifluoromethyl)phenyl)thiazol-2-yl)-3-methyl-1H-pyrazole-5-carboxylic acid], the IC50 is 530 ± 210 nM in data set [2]; 360 ± 720 nM in [7] (setting [20]); 180 ± 60 nM in data set [8]; 295 ± 110 nM in data set [11]; 120 ± 50 nM in [15] (setting [20]); 208 ± 80 nM in [18] (setting [20]). For the same molecule, the “Outcome: DNA Damage” value in data set [3] is given as “No evidence of DNA damage using Histtone H2A.x”. The “Apoptosis, 72 hr” value in [4] is “Yes”; in [5], “No”; in data set [9], “Yes”; in [12] it was “No”. Besides, the “GSH % Max reduction” value in data set [6] was 0%; in [7] it was 43 ± 9%; in data set [15], 52 ± 4%; in [18], 69 ± 11%. Besides, in data set [10], the “Outcome: Kinase” value is on record as “No activity on 63 kinase family members including Raf,”. Besides, the “Outcome: Metabolites” value in [13] was “induced specific alterations in redox (decreased GSH), energy (decrease in ATP/AMP ratio), and TCA cycle intermediates (decreased isocitrate/aconitate) in tumor cells but not NHLF; also recorded: Decrease in total GSH levels; decrease in ATP/AMP”. Also, the “Outcome: Oxidative Stress” value in data set [14] is reported as “No production of ROS”. Also, the “Outcome: Cytoskeletal” value in [16] is recorded as “No obvious changes in actin or microtubule localization”. Further, the bioavailability in data set [17] (plasma, 2.5 mg/kg, Oral, 2.5 mpk, read-out: % F) stood at 59.1%; in [17] (plasma, 2.5 mg/kg, single oral dose compared to single intravenous dose, read-out: Bioavailability) it was 59%. The molecule further came in with a t1/2 in [17] (Intravenous, 0.5 mpk) of 5.6 h. The Cmax was 2880 ng/mL in [17] (mouse, 0.5 mg/kg, Intravenous, 0.5 mpk) and 2610 ng/mL in data set [17] (mouse, 2.5 mg/kg, Oral, 2.5 mpk). The AUC(0-inf) turned out to be 14500 ng·h/mL in data set [17] (setting [21]) and 42900 ng·h/mL in [17] (mouse, plasma, 2.5 mg/kg, Oral, 2.5 mpk). The same molecule came in with a clearance in data set [17] (setting [21]) of 0.58 mL/min/kg. Moreover, the Vd in [17] (mouse, plasma, 0.5 mg/kg, Intravenous, 0.5 mpk, read-out: Vss) amounted to 0.285 L/kg. Also, the Tmax in data set [17] (mouse, plasma, 2.5 mg/kg, single oral dose, read-out: Plasma drug tmax) is 6 h. The molecule also had a half-life in [17] (mouse, plasma, iv, 0.5 mg/kg) of 5.6 h. Moreover, the “maximum reduction of cellular GSH” value in data set [19] is 43-69%.
